In patent publication US20050234100A1, “Insulin resistance as new action of loperamide” (Yu Sheng Pharmaceutical Co., Ltd., priority 2004, published 2005):

Tests used:
[1] = test system: TNF-α induced insulin resistant C2C12 myoblasts; experiment: insulin-stimulated glucose uptake in TNF-α induced insulin resistant C2C12 myoblasts; assay type: cell-based, mouse; details: for glucose uptake stimulated by insulin in TNF-α treated C2C12 myoblasts, antagonist alone: without loperamide
Protocol: (§1) The C2C12 cells, obtained from Culture Collection and Research Center (CCRC 60083) of the Food Industry Institute (Hsin-Chiu City, Taiwan) were plated at 5×10^4 cells/dish in 35-mm diameter culture dishes in Dulbecco's modified Eagle's medium (DMEM) (GIBCO BRL, Gaithersburg, Md.) supplemented with 10% fetal bovine serum (FBS) (GIBCO BRL) and 1% antibiotic solution (penicillin 10,000 U/ml, streptomycin 10 mg/ml, amphotericin B 25 μg/ml) and were grown to 80% confluence at 37° C. in humidified atmosphere containing 5% CO2. Myoblast differentiation was induced with DMEM supplemented with 5% horse serum, L-glutamine, and penicillin/streptomycin for 72 h. Differentiated myotubes were starved for 5 h in serum-free DMEM before treatment as described previously (Sheriff et al., 1992).
Cultured C2C12 myoblasts (5×10^6) were incubated with loperamide at desired concentration or the same volume of vehicle in a cultivation condition oxygenated with a mixture of 95% O2 and 5% CO2 at 37° C. temperature for 3 days. Then, tumor necrosis factor-α (TNF-α) at concentration of 10 ng/ml was added. One hour later, cells were flushed down with 0.05% trypsin and put under centrifugal force at 13,000 rpm for 5 minutes, and clear liquid on top was then thrown away. Insulin ([…]) was used to simulate glucose uptake into cells using 2-[1-^14C]-Deoxy-D-Glucose (2-DG) (the final concentration of isotope was 0.25 μCi/ml) as indicator for 5-min incubation. The reaction was terminated in ice-bath. Then, C2C12 myoblasts were washed with buffer liquid three times. Finally, cells were lysed with 1 M NaOH and put into scintillation vial. The 2-DG specific uptake of cells was measured as indicated above.
The effect of loeramide on insulin resistance was further investigated in C2C12 myoblasts using TNF-α induced insulin resistance as described previously (Ruan et al., 2002; Mikael et al., 2002). Incubation with loperamide for 3 days at desired concentration, C2C12 myoblasts were treated with TNF-α (10 ng/ml) for one hour. Then, insulin was used to stimulate glucose uptake using 2-DG as indicator following the above method.

[2] = test system: fructose-rich chow-fed Wistar rats (insulin resistance); experiment: intraperitoneal glucose tolerance test (IGTT) in fructose-induced insulin resistant rats; assay type: in vivo
Protocol: (§2) Animals were food-restricted and given only water to drink for overnight before the experiment. On the morning of examination, the basal blood sample (0.1 ml) drawn from the tail veins of these rats were regarded as 0 min samples. Then, each animal was immediately received an intraperitoneal injection of glucose at 1 g/kg body wt to induce the glucose tolerance test (IGTT). Blood samples from the tail vein were drawn at 5, 10, 20, 30, 60, 90, 120 min after the glucose feeding for measurement of plasma levels of glucose and insulin. Immediately after the completion of the IGTT, all animals received 2 ml of sterile saline subcutaneously to compensate for plasma loss. The obtained whole blood was thoroughly mixed with 10 IU heparin and centrifuged at 13,000×g to separate the plasma. Concentration of plasma glucose was measured by the glucose oxidase method via an analyzer (Quik-Lab, Ames, Miles Inc., Elkhart, Ind., USA) with samples run in duplicate. Enzyme-linked immunosorbent assay was carried out to measure plasma insulin using the commercial kit (Penisula Lab. Inc., Belmont, Calif., USA). Glucose-insulin index was calculated as the product of the glucose and insulin areas under the curve (AUC) as described previously (Kara et al., 2000). In order to evaluate whether loperamide could improve insulin resistance, four different doses of loperamide (2 ? 6 ? 12 ? 18 μg/kg) were injected into abdomen of each animal 30 minutes before the injection of glucose.
After 2 weeks on standard chow (Purina Mills, Inc.), half of the Wistar rats were randomly assigned to receive the fructose-rich chow (Teklad, Madison, Wis.) containing 60% fructose for 4 additional weeks to induce insulin resistance that was confirmed by the loss of tolbutamide action. The other rats still received standard chow during the 4-week period.
(§3) The blood sample was centrifuged to obtain plasma. Then, 10 μl of plasma was mixed with 1.0 ml of Glucose Kit Reagent (Biosystems S.A., Barcelona, Spain) at 37° C. for 10 minutes. The glucose concentration was measured in duplicate using Quik-lab analyzer (Ames, Miles Inc., Elkhart, Ind., USA) and expressed to the value of mg/dl. Results of plasma glucose lowering activity were calculated as percentage decrease of the initial value according to the formula: (Gi−Gt)/Gi×100% where Gi was the initial glucose concentration and Gt was the plasma glucose concentration after treatment of loperamide or same volume of vehicle.
(§4) Enzyme-linked immunosorbent assay (ELISA) was carried out to measure plasma insulin using the commercial kit (Penisula Lab. Inc., Belmont, Calif., USA). The measurement principle utilized the polyclonal antibodies in rabbit to directly identify the carboxyl-terminal of human insulin. Biotinylated peptide would compete with test subject the integration position with antibodies. After washing away the biotinylated peptides that was not integrated with antibodies, streptavidin-conjugated Horseradish Peroxidase (SA-HRP) was used to react with immobilized primary antibody/biotinylated peptide complex. Then, TMB (3,3′,5,5′-Tetramethyl Benzidine Dihydrochloride) is added to react with HRP and then yellow color was shown. The lightness or darkness of color was determined by the amount of biotinylated peptide integrated with antibodies. […] The standard curve was ploted according to the amounts of light absorption of standard subjects at 450 nm. Then through log/logit, the insulin concentration was calculated using MicroReader™ 4 Plus.
Using glucose-insulin index (Kara et al., 2000) as indicator, effect of loperamide on insulin resistance was investigated in fructose-fed rats. The control group was treated with the same volume of saline, while test groups were injected loperamide at four doses (2 ? 6 ? 12 ? 18 μg/kg) into abdomens. […]

C2C12 myoblasts = experiment: 2-DG glucose uptake in C2C12 myoblasts; assay type: cell-based, mouse
Protocol: as §1
Glucose uptake was determined using 2-[^14C]-deoxy-D-glucose (2-DG) (New England Nuclear, Boston, Mass.). After 5 h of serum starvation, cells were incubated with or without pharmacological inhibitors at indicated concentrations for 30 min at 37° C. Then, the cells were incubated with loperamide at indicated concentrations at 37° C. for another 30 min under continuous shaking at 40 cycles/min. The cells were further incubated with 2-DG (1 μCi/ml) for 5 min at 37° C. Uptake was terminated by aspiration of the solution. Cells were then washed three times, and radioactivity associated with the cells was determined by cell lysis in 1 M NaOH, and the aliquots were neutralized to be estimated in scintillation counter. 2-DG uptake was expressed as the percentage of the basal 2-DG uptake that was taken as 100% from samples incubated with DMEM only. Nonspecific uptake was obtained by parallel determinations in the presence of 20 μmol/l cytochalasin B (Sigma, St. Louis, Mo., USA).

[3] = test system: Zucker-diabetic fatty rats; experiment: glucose challenge test in Zucker-diabetic fatty rats; assay type: in vivo; details: loperamide 2, 6, 18 μg/kg
Protocol: as §2, §3, §4
In order to know similar action of loperamide is also effective in genetic animal, the present study employed the Zucker-diabetic fatty rats to investigate IGTT in addition. Also, control group was treated with the same volume of vehicle (saline). The only difference is that glucose (0.5 g/kg) was given by intravenous injection at 30 minutes later of treatment.

[4] = test system: STZ-induced type-I diabetic rats; details: intravenous injection; cited from earlier work
[5] = TNF-α treated C2C12 myoblasts, antagonist dose dependence

With `C=CCN1CC[C@]23c4c5ccc(O)c4O[C@H]2/C(=N/N=C2\CC[C@@]4(O)[C@H]6Cc7ccc(O)c8c7[C@@]4(CCN6CC=C)[C@H]2O8)CC[C@@]3(O)[C@H]1C5` [naloxonazine] the “effect of antagonist on action of loperamide (10 μM)” value (from here on “effect of antagonist”) [1, 5] was “inhibited the effect of loperamide in a dose-dependent manner”, the “effect of antagonist” value ([1]; antagonist at 1 μM) was “eliminated the action of loperamide” and the “glucose uptake stimulated by insulin in TNF-α treated C2C12 myoblasts, antagonist alone” value ([1]; antagonist at 1 μM) was “did not modify the glucose uptake”.
For `C=CCN1CC[C@]23c4c5ccc(O)c4O[C@H]2C(=O)CC[C@@]3(O)[C@H]1C5` [naloxone], the “action of loperamide to lower glucose-insulin index in the presence of naloxone” value ([2]; naloxone 1 mg/kg 1 hour before loperamide 18 μg/kg, fructose-rich chow-fed rats) was “reversed to that near to the value in fructose-rich chow-fed rats received vehicle treatment”, the “glucose-insulin index, naloxone alone” value ([2]; naloxone 1 mg/kg, fructose-rich chow-fed rats) was “did not modify the value of glucose-insulin index directly” and the “loperamide (10 μM)-induced 2-DG uptake in the presence of antagonist” value (C2C12 myoblasts; naloxone 0.1 μM, 8 experiments) was 183.2±4.1 pmol/mg protein/5 min. The “loperamide (10 μM)-induced 2-DG uptake in the presence of antagonist” value (C2C12 myoblasts; naloxone 1 μM, 8 experiments) was 169.9±5.0 pmol/mg protein/5 min, the “effect of antagonist” value [1, 5] was “inhibited the effect of loperamide in a dose-dependent manner” and the “effect of antagonist” value ([1]; antagonist at 1 μM) was “eliminated the action of loperamide”. The “glucose uptake stimulated by insulin in TNF-α treated C2C12 myoblasts, antagonist alone” value ([1]; antagonist at 1 μM) was “did not modify the glucose uptake”.
For `CN(C)C(=O)C(CCN1CCC(O)(c2ccc(Cl)cc2)CC1)(c1ccccc1)c1ccccc1` [loperamide], the “raise of plasma glucose during IGTT” value ([2]; fructose-fed rats, loperamide 2, 6, 12, 18 μg/kg into abdomen, 60 minutes after injection (30 minutes after 1 g/kg glucose i.p.), vs control group) was “reduce the raise of plasma glucose significantly”, the “plasma insulin levels and incremental area under the insulin curve during IGTT” value ([2]; fructose-fed rats, loperamide 2-18 μg/kg into abdomen) was “lowered” and the “total AUC for the glucose response during IGTT” value ([2]; fructose-fed rats, loperamide 2-18 μg/kg into abdomen, vs vehicle-treated control) was “markedly lower than that from vehicle-treated control”. For the same compound, the “glucose-insulin index during IGTT” value ([2]; fructose-rich chow-fed rats, loperamide 2-18 μg/kg into abdomen, index = product of glucose and insulin AUC) was “reduced the value of glucose-insulin index”, the “incubation time to maximal plateau of 2-DG uptake” value (C2C12 myoblasts; C2C12 myoblasts about 10^6 cells, 37° C.) was “about 25 min” and the “2-DG uptake, concentration dependence” value (C2C12 myoblasts; loperamide 10 nM to 10 μM, 30 min incubation) was “increase of 2-DG uptake in a concentration-dependent manner”. The “glucose uptake relative to control” value (C2C12 myoblasts; loperamide 10 μM (maximal concentration), N=8) was “about 1.3 times of the control”, the 2-DG uptake (C2C12 myoblasts; loperamide 10 μM, no antagonist, 8 experiments) was 204.3±4.7 pmol/mg protein/5 min and the “glucose uptake in TNF-α induced insulin resistant C2C12 myoblasts” value ([1]; loperamide 10 μM (maximal concentration)) was “reversed the glucose uptake in TNF-α induced insulin resistant C2C12 myoblasts to the level near normal control”. For the same compound, the “glucose uptake stimulated by insulin in TNF-α treated C2C12 myoblasts” value ([1]; loperamide incubation 3 days, TNF-α 10 ng/ml 1 hour, dose dependence) was “reversed the glucose uptake stimulated by insulin in TNF-α treated C2C12 myoblasts in a dose-dependent manner”, the “AUC of plasma glucose” value [3] was “inhibited by loperamide but at a higher dosing” and the glucose-insulin index [3] was “dose-dependently decreased”. For the same compound, the “total area (AUC) of plasma insulin” value [3] was “reduced by loperamide in a dose-dependent manner”, the “plasma insulin after glucose challenge” value ([3]; 5 min after glucose injection) was “reduction of plasma insulin by loperamide was obtained in a dose-dependent fashion” and the “plasma glucose after glucose challenge” value ([3]; 35 min after treatment (5 min after 0.5 g/kg glucose i.v.)) was “lowering of plasma glucose”. The plasma glucose [4] was “produced plasma glucose lowering effect”.
